One data set has as its system U87-MG cells. Kind of data set: Cell viability / gliotoxicity in U87-MG. The format is cell-based. Here is the method: (§1) Cells were treated for 48 hours accordingly to axis labels. At the end of the incubation time cells were prepared for the assay according to the manufacturer instructions. Luminescence values were then converted to % of survival.
(§2) Cells were treated for 48 h with the indicated concentrations of the agents. Astrocytes death was limited to 30% or lower. Suprisingly, C6 death was 3 folds higher than in astrocytes at 24 h and increased at 5 folds at 48 h. Data in U78-MG are similar to the C6 data although the effect was slightly lower but always at least 2 to 4 folds the effect seen in astrocytes.
In order to verify how the hypersensitivity of this signaling pathway in glioma cells affects the survival of the cells, viability assessments were performed using at least three unrelated biochemical tests. Initially, a commercially available kit (Cell Titer Glow) was used in the high throughput screening center for cytotoxicity screening. This test is amenable to high throughput screening techniques and, therefore, can be used for follow up of selected compounds in high or medium throughput settings. […] Since, THAP inhibits SERCA, an ATPase, and it can affect ATP levels directly the effect of THAP and TUN on these 3 cells types was also assessed using a commercially available kit that assesses metatetrazolium salts conversion (XTT). XTT assesses cell viability by probing mitochondrial integrity. […] Finally, viability of U87-MG was also assessed using a system measuring the activity of a house keeping cytosolic enzyme involved in glucose metabolism. Also using this detection system it was evident that glioma cells both C6 and U87-MG were greatly affected by induction of ERSR (FIG. 13). It is well known that prolonged ERSR leads to apoptosis, even in the presence of elevated GRP78 expression if that is coupled to significant protein unfolding. In rat cells this process is actuated via caspase 12 and ultimately via caspase 3 activation. […]

A further data set deals with GRP78. Kind of data set: GRP78 protein expression in U87-MG. The format is cell-based, human. Particulars: brief exposure (8 h), FIG. 11. Here is the method: Cells were treated as specified in the graph labeling. It is evident that glioma cells have enhanced GRP78 expression than astrocytes regardless of the challenging agent. N.T.=untreated; D=DMSO; T=TUN; Th=THAP.
Also it has been speculated that the increased higher constitutive expression in glioma cells determines their resilience to the hostile growth environment, to pharmacological treatment and to radiotherapy. However, these studies were performed comparing human astrocytes from repositories to several human malignant cell lines both commercially available or from patients. […] Therefore, in light of the preliminary observations, experiments were conducted in order to further investigate the phenomenon with the aim to better understand it. Experiments were performed using primary rat astrocytes and their glioma counterpart, the C6 cells; also, human glioma cells, such as U87-MG, were used. The latter have been widely used in assessing human glioma properties. Unstimulated expression levels of GRP78 were compared in these cells. In FIG. 11 it is possible to view that unstimulated GRP78 expression in these three cell types is very low.

The next data set deals with C6 cells. Kind of data set: Cell viability / gliotoxicity in C6. The format is cell-based. Particulars: for C6 death relative to astrocytes: cytoplasmic exosaminidase; for inhibition of XTT conversion compared with astrocytes: C6, 24 hours of treatment. Here is the method: as §1, §2
In order to verify how the hypersensitivity of this signaling pathway in glioma cells affects the survival of the cells, viability assessments were performed using at least three unrelated biochemical tests. Initially, a commercially available kit (Cell Titer Glow) was used in the high throughput screening center for cytotoxicity screening. This test is amenable to high throughput screening techniques and, therefore, can be used for follow up of selected compounds in high or medium throughput settings. […] Since, THAP inhibits SERCA, an ATPase, and it can affect ATP levels directly the effect of THAP and TUN on these 3 cells types was also assessed using a commercially available kit that assesses metatetrazolium salts conversion (XTT). XTT assesses cell viability by probing mitochondrial integrity. […] Finally, viability of U87-MG was also assessed using a system measuring the activity of a house keeping cytosolic enzyme involved in glucose metabolism. Also using this detection system it was evident that glioma cells both C6 and U87-MG were greatly affected by induction of ERSR (FIG. 13). It is well known that prolonged ERSR leads to apoptosis, even in the presence of elevated GRP78 expression if that is coupled to significant protein unfolding. In rat cells this process is actuated via caspase 12 and ultimately via caspase 3 activation. Experiments were conducted in order to determine if the observed effect on cell viability was also paralleled by caspase 12 activation, and if there were differences, as indicated by preliminary viability data, between normal and glioma cells.
In general terms: Tetrazolium assays rely on reduction of a dye to a coloured formazan, in cell work by metabolically active cells.

A further data set deals with GRP78 promoter. The data set is described as follows: GRP78-luc reporter assay in stably transfected U87-MG clone A5. Format: cell-based, human. The settings on record: for GRP78 promoter driven luciferase (GRP78-luc) expression: result in words. Here is the method: The promoter region contains the sequence of the GRP78 promoter from −139 to +7. In this part of the promoter there are three ER stress responsive elements and the TATA box to which is linked in frame the firefly luciferase sequence.
Compounds were plated in half area 96 well plates at the final concentration of 2 μM in 5 μl of media. Cells were added in 45 μl afterwards at the density of 5000/well. Plates were read after 16 h in an Envision high efficiency plate reader. Results are represented as a plate layout in which different shadings indicate the different rows and the number indicate the different lines. As a standard negative and positive controls were located in the outer columns.
A construct coding a large part of the human GRP78 promoter, attached to the reporter gene firefly luciferase was used (see FIG. 16 for a schematic) (Yoshida et al., 1998).
The promoter region contains the sequence of the GRP78 promoter from −139 to +7. In this part of the promoter there are three ER stress responsive elements and the TATA box to which is linked in frame the firefly luciferase sequence (FIG. 16)(Yoshida et al., 1998). The construct, which was cloned in an expression vector, was transfected into E. Coli, amplified, purified and checked it by enzymatic digestion. Thereafter, C6 and U87-MG were transiently transfected with the plasmid. After 24 hours the cells were challenged with THAP and TUN for 24 hours. Although, in transient transfection only a small part of the cell population expresses the transduced gene, a significant induction by THAP and TUN was detected over 24 hours. Armed with these encouraging data human glioma cells U87-MG were transfected with both the above described construct and a construct carrying resistance to blasticidin. The sensitivity of these cells to the antibiotic has previously been assessed. 24 hours after the transfection the antibiotic at its 75% inhibitory concentration was added. The cells were given time to proliferate. Two pools called P2 and P5 were selected and luciferase expression was assessed. […] Clones from these two pools were isolated. Luciferase expression in the clones was characterized and a clone called A5, in which baseline expression of the construct was reasonably low and induction with two positive controls was large and consistent, was selected. This clone, several back up clones, and the pools were amplified and frozen in sufficient amounts to guarantee continuity in case needed. Next, the effect of the incubation time on luciferase induction was assessed. Since this assay can be affected by false negative due to toxicity of hit compounds, the incubation times were kept as short as possible. Therefore, several incubation times were tested, including 8, 16 and 24 h. The goal was not to incubate longer than 24 hours because toxicity starts to develop at that time point. […] At this time point the induction is about 6-7 fold. Previously, using a different assay, a half a million compound library was screened very easily using 2.5 thousands cells per well in 1536 plates. […] With this cell number the dynamic range is large and the fold of induction of 6-7 is maintained.
It is common practice in the field of high throughput screening to assess the so called z number of the assay. This statistical parameter indicates the suitability of a given assay for high throughput screening. The z-value in a word describes the likelihood of a single point hit not to be false positive. The z value is a number lower than or equal to one. Values above 0.5 indicate a robust assay. Values below 0.5 but above 0 indicate an assay that probably needs to be run in duplicate. Negative values indicate assays whose predictability is very low. Z values are usually determined in a high density format plate usually a 96 well plate in manual conditions or a 384-1536 plate format in automated liquid handling environment. Z value determination has been performed using half area 96 well plates in manual mode. […]
(A reporter such as luciferase makes a cellular process visible.)

Setting [1] is: same concentration range as GRP78-luc increase.

The source of these data is patent publication US20110060000A1, “ACRIDINE ANALOGS IN THE TREATMENT OF GLIOMAS” (priority 2009, published 2011).

Entries after “also recorded” stand apart in the source; their conditions may differ. Where two headings read alike, the source gives them in different places.

For tunicamycin, the “cytotoxicity compared with astrocytes (Cell Titer Glow, ATP content)” value is listed as “significantly higher cytotoxicity” in the data set with U87-MG cells (U87-MG, 48 hours) and “significantly higher cytotoxicity” with C6 cells (C6, 48 hours). For the same compound, in the data set on GRP78, the “GRP78 expression in U87-MG after challenge” value is reported as “enhanced significantly”. Also, the “C6 death relative to astrocytes” value in the data set with C6 cells (24 h) was determined as 3 folds; in the data set with C6 cells (48 h), 5 folds. Also, the “inhibition of XTT conversion compared with astrocytes” value with C6 cells is “significantly higher inhibition of XTT conversion than astrocytes”. In the data set with GRP78 promoter, the “GRP78 promoter driven luciferase (GRP78-luc) expression” value was “increase of luciferase expression; also recorded: concentration dependent increase”.
Regarding `CCN(CC)CCCC(C)Nc1c2ccc(Cl)cc2nc2ccc(OC)cc12` (stereo not drawn) [quinacrine], the “gliotoxicity in U87-MG” value in the data set on U87-MG cells (setting [1]) is “killed very effectively”. The “gliotoxicity in C6” value in the data set with C6 cells (setting [1]) is “killed very effectively”. Further, in the data set on GRP78 promoter, the “concentration up to which GRP78-luc expression increased, after which the toxic effect was preponderant” value was “up to 10 μM”. The “hit in Prestwick library screening (value above average of negative controls + 3 SD)” value in the data set with GRP78 promoter (2 μM, 5000 cells/well, read after 16 h) is recorded as “potentially attractive lead compounds”.
Turning to `C/C=C(/C)C(=O)O[C@H]1C(C)=C2[C@H]([C@@H]1OC(=O)CCCCCCC)[C@@](C)(OC(C)=O)C[C@H](OC(=O)CCC)[C@@]1(O)[C@H]2OC(=O)[C@@]1(C)O` [THAP, thapsigargin], the “cytotoxicity compared with astrocytes (Cell Titer Glow, ATP content)” value with U87-MG cells and in the data set on C6 cells was “significantly higher cytotoxicity” throughout. Moreover, the “GRP78 expression in U87-MG after challenge” value in the data set with GRP78 is given as “enhanced significantly”. Further, the “C6 death relative to astrocytes” value is listed as 3 folds with C6 cells (24 h) and 5 folds in the data set with C6 cells (48 h). The “inhibition of XTT conversion compared with astrocytes” value in the data set on C6 cells is reported as “significantly higher inhibition of XTT conversion than astrocytes”. Besides, the “GRP78 promoter driven luciferase (GRP78-luc) expression” value in the data set with GRP78 promoter was “increase of luciferase expression; also recorded: concentration dependent increase”.
